Where a SMILES comes first, the peptide text is derived from it. The star is where a group is joined. Cbz = O=C(OCc1ccccc1)*
Key:
[1] = test system: ATGL; assay: ATGL protein quantification via immunoblot in HepG2 cell type; assay type: cell-based, human
Method: HepG2 cell type was cultured in RPMI medium with 10% FBS and 1% Pen/Strep on collagen-coated plates. Lipofectamine RNAiMAX reagent mediated siRNA (100 nM) was delivered to cells at the suspended state for 48 h. Different from HEK cells, it is not necessary to induce LDs via OA treatment in that there exist LDs in the HepG2 cell type at normal culture medium. The inventors treated HepG2 cells with 10 µM PF04620110 (DGAT1 inhibitor, Sigma) & PF-06424439 (DGAT2 inhibitor, Sigma) for 48 hours or with 5 µg/mL BFA (B5936, Sigma) for 6 hours to deplete LDs and intact Golgi in the HepG2 cell type respectively before glucose deprivation. To deprive glucose in the HepG2 cell type, we either added 2-DG at indicated concentrations to the culture medium or refresh cells with RPMI medium containing different glucose concentrations prepared from the same RPMI medium (Gibco, 11879020).
Adipose depots, liver pieces, differentiated iBAs, HepG2, HEK293T and HEK293-AAV cell types were homogenized in RIPA buffer (50 mM Tris-HCl pH 7.4, 150 mM NaCl, 2 mM EDTA, 1.0% Triton X100, 0.5% sodium deoxycholate) with protease inhibitors (Complete, Roche) and phosphatase inhibitors (Halt phosphatase inhibitor cocktail, ThermoFisher). […] The concentration of WCE was determined by DC Protein Assay (Bio-Rad). […]

[2] = test system: wild-type mice; assay: Glucose deprivation by 2-DG administration in mice; assay type: in vivo
Method: All animal experiments were permitted by the Veterinary office of the Canton of Zurich. Both female and male mice were used in the experiments, and they were housed 2-5 littermates per cage in ventilated cages at standard housing conditions (22°C, 12 h reversed light/dark cycle, dark phase starting at 7 am) with normal chow diet (18% proteins, 4.5% fibers, 4.5% fat, 6.3% ashes, Provimi Kliba SA) and water. Health status of all the mouse lines were monitored regularly based on FELASA guidelines. 8-10 weeks old C57BL/6N male mice were fasted for 24 h or injected with 2-DG (2 g/kg BW) to induce glucose deprivation for different durations. Female ROSA26-LSL-spCas9 mice (The Jackson Lab strain) were intravenously injected with AAV8-U6-Pi4kb gRNAs-TBG-Cre, AAV8-U6-Sacm1l gRNAs-TBG-Cre, AAV8-U6-Cu/7 gRNAs-TBG-Cre and AAV8-U6-Fbxw8 gRNAs-TBG-Cre virus pools to express six gRNAs targeting individual gene and CAS9 in the liver at a dose of 3×10^11 genome copies/mouse. Two weeks later, livers were harvested for protein and RNA extraction after 6 hours fasting. To determine liver TG levels under NCD feeding condition, 4 weeks after AAV administration livers were harvested after 6 hours fasting. Also 4 weeks after AAV administration, the liver specific Cul7&Fbxw8 double knockout mice were injected with 2-DG (2 g/kg BW) to induce 1 hour glucose deprivation prior to liver harvesting for protein extraction.
Adipose depots, liver pieces, differentiated iBAs, HepG2, HEK293T and HEK293-AAV cell types were homogenized in RIPA buffer (50 mM Tris-HCl pH 7.4, 150 mM NaCl, 2 mM EDTA, 1.0% Triton X100, 0.5% sodium deoxycholate) with protease inhibitors (Complete, Roche) and phosphatase inhibitors (Halt phosphatase inhibitor cocktail, ThermoFisher). The homogenates were centrifuged at 12,000×g for 10 min at 4°C to remove debris and collect whole cell extract (WCE). The concentration of WCE was determined by DC Protein Assay (Bio-Rad). After boiling the sample with Lämmeli buffer at 95°C for 5 min, equal amount of proteins was loaded and separated on 12% SDS-PAGE. The proteins were transferred to nitrocellulose membrane and blotted by ATGL (1:1000, Cell Signaling), CGI-58 (1:1000, Proteintech), phospho-HSL(Ser660) (1:1000, Cell Signaling), PLIN1 (1:1000, Cell Signaling), HSL (1:1000, Cell Signaling), γ-tubulin (1:10000, Sigma), FLAG (1:10000, Sigma; 1:1000, Cell Signaling), MGL (1:1000, Abcam), HA (1:1000, Cell signaling), FBXW8 (1:100, Santa Cruz; 1:1000, Sigma), CUL7 (1:100, Santa Cruz), HSP90 (1:1000, Cell Signaling), K48 polyubiquitin (1:1000, Cell signaling), PI4KB (1:1000, Sigma), SACM1L (1:1000, Sigma), AKT1 (1:1000, Cell Signaling), phospho-AKT1(Ser473) (1:1000, Cell Signaling), TGN46 (1:1000, Abcam), MAOA (1:1000, Abcam), PLIN2 (1:1000, Abcam), PMP70 (1:10000, Sigma), Calnexin (1:1000, Cell Signaling), ARF1 (1:1000, Invitrogen), GAPDH (1:1000, Cell Signaling), RAB7 (1:1000, Cell Signaling), alpha 1 Sodium Potassium ATPase (1:1000, Abcam), Cleaved Caspase-3 (1:1000, Cell Signaling), phospho-AMPKα (Thr172) (1:1000, Cell Signaling), AMPKα (1:1000, Cell Signaling) and GM130 (1:1000, Proteintech). The primay antibody signal was visualized by HRP-conjugated secondary antibodies (1:5000, Millipore) and the ImageQuant system (GE Healthcare Life Sciences).
For mouse insulin measurement, plasma was collected at different timepoints after 2-DG administration in wild type mice. 5 µl plasma sample was used to determine insulin levels via Ultra-sensitive mouse insulin ELISA kit (Crystal Chem, Cat# 90080) according to the manufacturer's protocol. The absorbance was measured via Synergy Gen5 Platereader at 450/630 nm. 2 µl plasma sample was used to determine glucose levels via Glucose Assay Kit (Sigma, MAK263) according to the manufacturer's protocol. The absorbance was read at 570 nm in Synergy Gen5 Platereader.
Plasma collected from mice under different conditions was used to determine levels of lipolysis and liver injury. […]

[3] = test system: ATGL; assay: Blocking of proteasome mediated degradation and autophagy, cellular ATGL protein; assay type: cell-based; settings: proteasome blocked by MG132
[4] = 1 hour after 2-DG administration

O=CC[C@@H](O)[C@H](O)[C@H](O)CO [2-DG, 2-Deoxy-D-glucose]
ATGL protein abundance ([1]; HepG2, 2-DG treatment (50 mM), transcript levels unchanged): strongly induced | lipolysis (plasma FFA levels) ([2]; 2-DG 2 g/kg BW, 1 h, 6 h and 12 h): significantly induced | ATGL levels in livers of wild-type mice ([2]; 2-DG for 1 hour, no upregulation in Cul7 and Fbxw8 double knockout): upregulation | ATGL protein levels in the liver and iBAT ([2]; 1 hour after 2-DG): increased | HSL phosphorylation in white adipose tissues [2, 4]: upregulation | plasma insulin levels [2, 4]: reduction | ATGL protein levels in the liver, iBAT, iWAT and gWAT ([2]; longer glucose deprivation (6 h, 12 h after 2-DG)): further accumulation

CC(C)C[C@@H](C=O)NC(=O)[C@H](CC(C)C)NC(=O)[C@H](CC(C)C)NC(=O)OCc1ccccc1 [MG132] (Cbz-Leu-Leu-Leu-aldehyde)
cellular ATGL protein [3]: accumulation

C[C@H]1CCC/C=C/[C@@H]2C[C@H](O)C[C@H]2[C@H](O)/C=C/C(=O)O1 [BFA, Brefeldin A]
intracellular ATGL levels upon glucose deprivation ([1]; HepG2 after treatment with BFA (5 µg/mL, 6 hours)): failed to upregulate
